Results: patent publication US10092515B2, “Liposomal formulations of polymyxin B and uses thereof” (University of Houston System, priority 2012, dated 2018)

Legend:
[1] = Onset of nephrotoxicity (serum creatinine >=2-fold baseline) at escalating daily doses; type: in vivo, Sprague-Dawley rats; conditions: rats
Text: Female Sprague-Dawley rats (225 to 250 g) (Harlan, Indianapolis, Ind.) were used. The rats received food and water ad libitum. All animals were cared for in accordance with the highest humane and ethical standards, as approved by the Institutional Animal Care and Use Committee (IACUC) of the University of Houston. The jugular veins of selected animals were cannulated to facilitate intravenous drug administration.
Prior to each experiment, polymyxin B for injection (USP) was reconstituted with sterile water for injection (USP) and diluted to achieve the desired concentration. The reconstituted drug solution was stored at −80° C. in aliquots and thawed immediately before dosing.
To mimic a clinical course of polymyxin B treatment, three groups of rats (n=13 each) were administered escalating dose levels of polymyxin B (5 mg/kg, 10 mg/kg, and 20 mg/kg, respectively) once daily subcutaneously for up to 7 days. Blood samples (approximately 200 μl) were drawn via the tail vein at baseline and on a daily basis (before dosing when applicable). Blood was allowed to clot on ice, and serum was separated by centrifugation at 4,000×g for 10 min. Serum samples (100 μl) were further assayed for creatinine levels by use of a clinical chemistry analyzer (Piccolo Xpress; Abaxis, Inc., Union City, Calif.). A significant elevation in serum creatinine (≥2-fold […] the baseline level) was set as the endpoint for nephrotoxicity. Kaplan-Meier survival analysis and a log rank (Mantel-Cox) test were used to compare the times of onset of nephrotoxicity among various groups. Right censoring was used if the nephrotoxicity endpoint was not observed by day 7.

[2] = Polymyxin B pharmacokinetics in megalin-shedding rats (serum and renal tissue); type: in vivo, Sprague-Dawley rats; conditions: for AUC0-∞, renal tissue/AUC0-∞, serum ratio / AUC0-∞, renal tissue / AUC0-∞, serum / renal tissue polymyxin B concentration (3 h postdosing): rats, 3 mg/kg IV
Experimental: (§1) A validated ultraperformance liquid chromatography-tandem mass spectrometry (UPLC/MS-MS) method was modified to determine the concentrations of polymyxin B in rat serum and renal tissues, as previously described (32). The lower limit of quantification (LLOQ) was 50 ng/ml for all the major components of polymyxin B in serum as well as the renal tissue homogenate.
To study the impact of sodium maleate pretreatment on systemic/renal exposure of polymyxin B, the rats were divided into two groups (n=13 each). Animals in both control and experimental groups were administered a single intravenous dose of 3 mg/kg of polymyxin B sulfate (USP). The intravenous route of polymyxin B administration was preferred to avoid any interference with drug absorption at the injection site. In addition, the animals in the experimental group were given 400 mg/kg of sodium maleate intraperitoneally 3 to 6 h prior to polymyxin B administration. Serum samples were obtained at 1.5, 3, 4.5, 6, and 7.5 h after polymyxin B dosing. In addition, the rats were sacrificed to harvest the kidneys at 3, 6, and 24 h (n=3 at each time point) postdosing. Polymyxin B concentrations in serum and renal tissue samples were assayed by the validated UPLC-MS/MS method detailed above.
The mean concentrations of polymyxin B in serum, as well as in renal tissue samples, at each time point were used. A modified two-compartment model (data not shown) was used to cofit the serum/renal tissue concentration-time profiles using ADAPT 5 (University of Southern California, Los Angeles, Calif.). Using the best-fit parameters, the AUC0-∞ was estimated by integrating instantaneous concentrations with respect to time. The AUC0-∞, renal tissue/AUC0-∞, serum ratio was used as an index to quantitatively assess preferential accumulation of polymyxin B in renal tissue.
To further examine whether the effect of sodium maleate on the renal accumulation of polymyxin B is transient, three additional rats were given a single dose of 400 mg/kg of sodium maleate intraperitoneally. Two weeks later, the animals were given a single dose of 3 mg/kg of polymyxin B intravenously. The rats were sacrificed at 3 h postdosing; kidneys were harvested and homogenized. Polymyxin B concentrations in renal tissue samples were assayed by the validated UPLC-MS/MS method.

[3] = tested on: P. aeruginosa ATCC 27853 (PA 27853); conditions: PA 27853, previously determined; cited from earlier work
[4] = tested on: multiple drug resistant (MDR) Pseudomonas aeruginosa strain (PA 9019); conditions: PA 9019, previously determined; cited from earlier work
[5] = Renal tissue concentration of polymyxin B at escalating dose levels; type: in vivo, Sprague-Dawley rats; conditions: rats, 24 h after first dose, summed components
Experimental: as §1
To determine the renal tissue concentration of polymyxin B, three rats from each dosing group were randomly selected and sacrificed at 24 h after the first dose; kidneys were harvested and homogenized. A fixed time point was selected to avoid any potential confounding due to different cumulative doses received when nephrotoxocity was observed. The concentrations of the major components of polymyxin B (polymyxin B1, polymyxin B2, polymyxin B3, and isoleucine polymyxin B1) were determined in […] as described above.
For the purpose of drug quantification in the renal tissue homogenates, the estimated concentrations were divided by the total weight of the kidney and the final concentrations were expressed per gram of renal tissue (in micrograms/gram). The summed concentrations of individual components were used to estimate the overall renal drug exposure (33). One-way analysis of variance (ANOVA) and then post hoc Tukey's test were used to compare the mean renal tissue concentrations among the dosing groups, and P values of <0.05 were considered significant.

[6] = experimental group: 400 mg/kg sodium maleate i.p. 3 to 6 h before

Polymyxin B
animals that reached the predefined nephrotoxicity endpoint by day 7 ([1]; 5 mg/kg once daily subcutaneously up to 7 days): none | animals that reached the nephrotoxicity endpoint within the first 48 h of treatment ([1]; 10 mg/kg daily subcutaneously): 1 out of 10 | animals that reached the nephrotoxicity endpoint within the first 48 h of treatment ([1]; 20 mg/kg daily subcutaneously): 8 out of 10 | animals that reached the predefined nephrotoxicity endpoint (serum creatinine >=2-fold baseline) ([1]; 20 mg/kg once daily subcutaneously up to 7 days): 10 out of 10 | attenuation of polymyxin B exposure in renal tissue after pretreatment with maleate ([2]; megalin-shedding rats vs control): approximately 40% | AUC0-∞, renal tissue/AUC0-∞, serum ratio ([2]; control group): 19.1 | AUC0-∞, renal tissue ([2]; control group (no maleate)): 211900 ng·h/mL | AUC0-∞, serum ([2]; control group (no maleate)): 10400 ng·h/mL | renal tissue polymyxin B concentration (3 h postdosing) ([2]; control rats): 11.45 µg/g | AUC0-∞, renal tissue/AUC0-∞, serum ratio ([2]; experimental group (maleate pretreatment)): 11.6 | AUC0-∞, renal tissue [2, 6]: 121000 ng·h/mL | AUC0-∞, serum [2, 6]: 11100 ng·h/mL | renal tissue polymyxin B concentration (3 h postdosing) ([2]; sodium maleate 400 mg/kg given 2 weeks earlier): 11.08 µg/g | minimum inhibitory concentration (MIC) [3]: 2 µg/mL | minimum inhibitory concentration (MIC) [4]: 4 µg/mL | concentration of polymyxin B in renal tissue ([5]; 5-mg/kg dosing group): 3.6 ± 0.4 µg/g | concentration of polymyxin B in renal tissue ([5]; 10-mg/kg dosing group): 9.9 ± 1.5 µg/g | concentration of polymyxin B in renal tissue ([5]; 20-mg/kg dosing group): 21.7 ± 4.8 µg/g
